Laboratory results: patent US20220323405A1, “COMBINATION PRODUCT USING 3,4-METHYLENEDIOXYMETHAMPHETAMINE AND […] THE TREATMENT OF […] DISORDERS” (Universitätsspital Basel, priority 2021, published 2022)
Where two headings read alike, the source gives them in different places.

Assays:
healthy humans = assay: Modeled co-administration of carvedilol with MDMA at the same time (estimates from pre-administration data); parameters: species or system human
From the text: FIGS. 11A-11C are graphs showing effects of MDMA alone, carvedilol alone, carvedilol prior to MDMA and carvedilol co-administered with MDMA at the same time (modeled data) on systolic (FIG. 11A), diastolic (FIG. 11B), and mean arterial blood pressure (FIG. 11C) in healthy humans; and
FIGS. 12A-12B are graphs showing effects of MDMA alone, carvedilol alone, carvedilol prior to MDMA and carvedilol co-administered with MDMA at the same time (modeled data) on heart rate (FIG. 12A) and body temperature (FIG. 12B) in healthy humans.
Therefore, the present invention further developed the carvedilol-pre-dosing approach into a simultaneous dosing approach. The study provided the information on the effects of carvedilol alone, and MDMA alone.
For blood pressure and heart rate the effects of carvedilol given simultaneously with MDMA were therefore estimated using the carvedilol and placebo mean values for each measured time point after administration and the mean carvedilol-placebo effect difference was calculated and then subtracted from the MDMA-placebo difference (FIGS. 11A-11C).
FIGS. 11A-11C and 12A-12B illustrate the beneficial effect of the present invention using co-administration of the adverse effect-reducing agent (carvedilol) and the empathogen/entactogen (MDMA). If carvedilol is administered before MDMA (carvedilol prior MDMA condition) as in the past study (Hysek et al., 2012a), a drop in blood pressure and heart rate can be observed in FIGS. 11A-11C and 12A-12B prior to the MDMA administration and consistent with the effect of carvedilol alone.
The graphical illustrations (FIGS. 11A-11C and 12A-12B) are based on estimates and modeling using existing data from the pre-administration of carvedilol. However, it is clear from illustrations FIGS. 11A-11C and 12A-12B that the invention provides an effective approach to reduce MDMA-induced cardiostimulant effects.

rats = conditions: cited from earlier work
humans [1] = conditions: cited from earlier work
healthy subjects [2] = conditions: non-ambulating persons, 1.5-4 hours after administration vs placebo; p<0.001; cited from earlier work
healthy human subjects = conditions: MDMA 125 mg vs placebo, cited from earlier work
healthy subjects [3] = conditions: doxazosin 8 mg/d for 3 days before MDMA 125 mg; cited from earlier work
healthy subjects [4] = conditions: cited from earlier work
humans [5] = conditions: carvedilol 50 mg; cited from earlier work
[6] = humans, after MDMA vs after pindolol-MDMA
[7] = carvedilol 50 mg 1 hour before MDMA 125 mg
[8] = carvedilol 50 mg 1 hour before MDMA 125 mg, listed as Carvedilol

## CNC(C)Cc1ccc2c(c1)OCO2 (stereo not shown) [MDMA, 3,4-methylenedioxymethamphetamine]
Healthy humans; MDMA alone
  Body temperature (FIG. 12B): slightly increases
rats
  Norepinephrine levels: induced
Humans [1]; [6]
  Peak mean arterial blood pressure (MAP) values: 115±11 mm Hg
  Peak values (mean±SD) for heart rate: 84±13 beats/minute
Healthy subjects [2]
  Body temperature: elevated
Healthy human subjects
  Diastolic and systolic blood pressure: significantly increased
  Heart rate: significantly increased
  Pupil size: significantly increased
  Rate pressure product: significantly increased
Healthy human subjects; tympanic
  Body temperature: significantly increased

## CC(C)NCC(O)COc1cccc2[nH]ccc12 (stereo not shown) [pindolol]
Humans [1]; pindolol pretreatment
  Effect on MDMA-induced increase in body temperature: no effect
  Effect on adverse effects of MDMA: did not change

## COc1cc2nc(N3CCN(C(=O)C4COc5ccccc5O4)CC3)nc(N)c2cc1OC (stereo not shown) [Doxazosin, doxazosin]
Healthy subjects [3]
  Effect on MDMA-induced elevations in blood pressure: reduced
  Effect on MDMA-induced elevations in body temperature: reduced

## COc1ccccc1OCCNCC(O)COc1cccc2[nH]c3ccccc3c12 (stereo not shown) [carvedilol]
Healthy humans; carvedilol administered prior to MDMA and with MDMA, modeled data
  Effect on MDMA-induced increase in body temperature (FIG. 12B): reduce
Healthy humans; carvedilol with MDMA at the same time, modeled data
  Effect on MDMA-induced increase in heart rate and blood pressure: reduce the MDMA effect effectively and similarly
rats; administered 1 hour after MDMA
  Effect on established MDMA-induced hyperthermia: completely reversed
rats; administered before or after MDMA
  Effect on MDMA-induced hyperthermic (thermogenic) response: prevented
Healthy subjects [4]; [7]
  Effect on MDMA-induced elevations in blood pressure: effectively reduced
  Effect on MDMA-induced elevations in body temperature: reduced
  Effect on MDMA-induced elevations in heart rate: effectively reduced
  Effect on plasma exposure to MDMA: did not alter
  Effect on subjective effects of MDMA (good drug effects, drug liking): did not alter
Healthy subjects [4]; [8]
  Effect on MDMA-induced elevations in blood pressure: reduced
  Effect on MDMA-induced elevations in heart rate: reduced
  Effect on subjective effects of MDMA (good drug effects, drug liking): did not affect
Healthy subjects [4]; carvedilol prior MDMA condition
  Blood pressure and heart rate prior to the MDMA administration: drop
Humans [5]
  Effect on smoked cocaine-induced increases in heart rate and blood pressure: attenuate
